Test [1] deals with T1, 5-hydroxytryptamine receptor 1A (Homo sapiens, UniProt P08908).
T1 sequence (P08908 whole entry): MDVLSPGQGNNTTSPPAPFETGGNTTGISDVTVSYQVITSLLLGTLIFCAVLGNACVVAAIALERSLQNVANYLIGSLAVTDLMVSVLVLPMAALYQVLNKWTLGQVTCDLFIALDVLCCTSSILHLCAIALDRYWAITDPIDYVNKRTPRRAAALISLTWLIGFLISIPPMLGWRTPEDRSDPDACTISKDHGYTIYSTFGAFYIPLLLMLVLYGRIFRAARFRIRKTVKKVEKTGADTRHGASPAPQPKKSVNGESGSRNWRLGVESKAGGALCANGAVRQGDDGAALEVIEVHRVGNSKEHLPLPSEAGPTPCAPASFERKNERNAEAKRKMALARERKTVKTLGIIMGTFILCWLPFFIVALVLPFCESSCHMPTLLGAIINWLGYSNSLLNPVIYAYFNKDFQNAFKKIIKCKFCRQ
It is filed as functional, cell-based.

For test [2], the target named is T2, Alpha-2A adrenergic receptor (Homo sapiens, UniProt P08913).
T2 sequence (P08913 whole entry): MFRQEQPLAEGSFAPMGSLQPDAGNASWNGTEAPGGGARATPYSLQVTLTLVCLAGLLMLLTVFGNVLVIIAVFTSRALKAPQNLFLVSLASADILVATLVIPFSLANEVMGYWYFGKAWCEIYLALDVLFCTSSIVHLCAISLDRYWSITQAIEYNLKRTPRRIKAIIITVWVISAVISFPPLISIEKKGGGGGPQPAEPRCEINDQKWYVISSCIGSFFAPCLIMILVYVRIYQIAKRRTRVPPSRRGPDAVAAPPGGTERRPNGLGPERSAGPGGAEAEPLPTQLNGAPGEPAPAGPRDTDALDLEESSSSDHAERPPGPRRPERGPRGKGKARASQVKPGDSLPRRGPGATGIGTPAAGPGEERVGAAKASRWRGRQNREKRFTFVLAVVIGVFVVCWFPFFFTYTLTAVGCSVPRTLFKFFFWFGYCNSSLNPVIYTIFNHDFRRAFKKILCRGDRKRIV
The class given is functional, cell-based.

Test [3] has as its target Melanocortin receptor 3 (Homo sapiens, UniProt P41968).
In test [4] the target is Cannabinoid receptor 1 (Homo sapiens, UniProt P21554).
Sequence of Cannabinoid receptor 1 (P21554 whole entry): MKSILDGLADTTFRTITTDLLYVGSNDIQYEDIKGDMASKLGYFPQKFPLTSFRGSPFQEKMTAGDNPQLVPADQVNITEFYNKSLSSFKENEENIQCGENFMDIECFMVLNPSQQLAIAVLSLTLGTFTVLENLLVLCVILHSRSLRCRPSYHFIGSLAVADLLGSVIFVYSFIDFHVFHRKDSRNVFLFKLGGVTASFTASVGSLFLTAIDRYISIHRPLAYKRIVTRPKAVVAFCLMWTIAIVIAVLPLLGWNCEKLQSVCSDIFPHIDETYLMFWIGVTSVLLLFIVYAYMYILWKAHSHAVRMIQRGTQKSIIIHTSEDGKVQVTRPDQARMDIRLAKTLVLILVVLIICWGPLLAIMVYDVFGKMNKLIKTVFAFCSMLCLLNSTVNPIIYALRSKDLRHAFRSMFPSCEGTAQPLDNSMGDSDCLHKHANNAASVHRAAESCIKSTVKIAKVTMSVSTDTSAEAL
Test [5] concerns the target Histamine H2 receptor (Homo sapiens, UniProt P25021). It is filed as functional, cell-based.
For test [6], the target named is T3, Alpha-2C adrenergic receptor (Homo sapiens, UniProt P18825).
T3 sequence (P18825 whole entry): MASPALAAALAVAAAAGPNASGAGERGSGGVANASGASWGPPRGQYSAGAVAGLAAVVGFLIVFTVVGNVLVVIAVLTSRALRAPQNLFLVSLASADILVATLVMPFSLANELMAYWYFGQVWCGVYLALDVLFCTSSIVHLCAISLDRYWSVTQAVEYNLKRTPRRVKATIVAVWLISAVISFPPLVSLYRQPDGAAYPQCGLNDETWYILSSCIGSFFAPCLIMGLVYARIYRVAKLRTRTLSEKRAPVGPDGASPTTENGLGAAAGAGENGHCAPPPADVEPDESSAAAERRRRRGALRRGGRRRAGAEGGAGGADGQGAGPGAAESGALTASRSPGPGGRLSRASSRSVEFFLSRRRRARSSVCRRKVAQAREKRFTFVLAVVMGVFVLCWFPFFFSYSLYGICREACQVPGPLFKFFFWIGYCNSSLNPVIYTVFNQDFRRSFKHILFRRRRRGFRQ
The class given is functional.

Test [7] addresses Motilin receptor (Homo sapiens, UniProt O43193).
For test [8], the target named is Adenosine receptor A2a (Homo sapiens, UniProt P29274).
Sequence of Adenosine receptor A2a (P29274 whole entry): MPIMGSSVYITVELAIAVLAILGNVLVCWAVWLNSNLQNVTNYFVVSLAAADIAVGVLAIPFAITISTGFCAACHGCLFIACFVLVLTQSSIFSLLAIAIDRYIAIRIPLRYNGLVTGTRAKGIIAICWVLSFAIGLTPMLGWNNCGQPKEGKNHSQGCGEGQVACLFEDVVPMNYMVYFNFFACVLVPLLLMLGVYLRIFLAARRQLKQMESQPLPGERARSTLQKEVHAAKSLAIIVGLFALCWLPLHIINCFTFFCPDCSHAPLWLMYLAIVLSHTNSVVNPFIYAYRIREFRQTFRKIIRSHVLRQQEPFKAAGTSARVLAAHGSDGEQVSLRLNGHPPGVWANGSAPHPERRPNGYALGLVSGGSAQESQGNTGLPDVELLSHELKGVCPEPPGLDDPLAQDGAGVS
The target in test [9] is 5-hydroxytryptamine receptor 2A (Homo sapiens, UniProt P28223). It is filed as functional, cell-based.
Sequence of 5-hydroxytryptamine receptor 2A (P28223 whole entry): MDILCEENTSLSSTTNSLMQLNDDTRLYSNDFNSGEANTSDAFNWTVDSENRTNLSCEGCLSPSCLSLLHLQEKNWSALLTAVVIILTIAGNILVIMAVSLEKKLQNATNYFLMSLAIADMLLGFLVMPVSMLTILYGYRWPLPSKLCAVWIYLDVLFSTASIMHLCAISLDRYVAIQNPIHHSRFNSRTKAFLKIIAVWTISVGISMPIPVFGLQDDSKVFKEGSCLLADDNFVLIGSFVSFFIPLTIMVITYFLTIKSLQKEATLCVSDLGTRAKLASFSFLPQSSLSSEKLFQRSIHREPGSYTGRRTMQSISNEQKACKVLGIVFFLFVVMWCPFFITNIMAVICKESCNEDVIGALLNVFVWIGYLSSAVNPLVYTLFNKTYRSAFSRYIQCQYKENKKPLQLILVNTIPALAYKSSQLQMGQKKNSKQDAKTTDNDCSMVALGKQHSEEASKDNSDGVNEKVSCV
Test [10] concerns the target T1, 5-hydroxytryptamine receptor 1A. It is filed as functional, cell-based. This is another data set of the same source.
In test [11] the target is T4, Adenosine receptor A1 (Homo sapiens, UniProt P30542).
T4 sequence (P30542 whole entry): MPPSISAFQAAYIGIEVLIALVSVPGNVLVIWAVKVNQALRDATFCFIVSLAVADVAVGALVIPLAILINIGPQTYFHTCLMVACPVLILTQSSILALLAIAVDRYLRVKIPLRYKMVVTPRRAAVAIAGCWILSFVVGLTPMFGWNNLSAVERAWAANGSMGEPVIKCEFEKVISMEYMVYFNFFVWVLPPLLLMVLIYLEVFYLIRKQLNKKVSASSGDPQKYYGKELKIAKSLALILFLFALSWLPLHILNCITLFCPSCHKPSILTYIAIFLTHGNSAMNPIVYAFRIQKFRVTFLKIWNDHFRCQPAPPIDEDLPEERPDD

The target of test [12] is T5, Muscarinic acetylcholine receptor M2 (Homo sapiens, UniProt P08172).
T5 sequence (P08172 whole entry): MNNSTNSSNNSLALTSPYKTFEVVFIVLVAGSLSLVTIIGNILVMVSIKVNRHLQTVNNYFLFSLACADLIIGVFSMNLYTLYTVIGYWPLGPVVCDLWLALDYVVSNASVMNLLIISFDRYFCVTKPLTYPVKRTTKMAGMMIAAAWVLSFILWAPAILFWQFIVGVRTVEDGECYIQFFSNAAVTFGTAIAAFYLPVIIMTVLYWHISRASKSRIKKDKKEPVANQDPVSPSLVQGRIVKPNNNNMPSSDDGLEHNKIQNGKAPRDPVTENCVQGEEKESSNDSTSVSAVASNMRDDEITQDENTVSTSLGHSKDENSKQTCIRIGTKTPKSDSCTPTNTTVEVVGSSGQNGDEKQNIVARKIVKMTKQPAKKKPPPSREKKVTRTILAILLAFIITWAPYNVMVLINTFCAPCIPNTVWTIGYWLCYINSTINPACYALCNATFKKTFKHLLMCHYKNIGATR
It is filed as functional, cell-based.

For test [13], the target named is Acetylcholinesterase (Homo sapiens, UniProt P22303). It is filed as functional.
Sequence of Acetylcholinesterase (P22303 whole entry): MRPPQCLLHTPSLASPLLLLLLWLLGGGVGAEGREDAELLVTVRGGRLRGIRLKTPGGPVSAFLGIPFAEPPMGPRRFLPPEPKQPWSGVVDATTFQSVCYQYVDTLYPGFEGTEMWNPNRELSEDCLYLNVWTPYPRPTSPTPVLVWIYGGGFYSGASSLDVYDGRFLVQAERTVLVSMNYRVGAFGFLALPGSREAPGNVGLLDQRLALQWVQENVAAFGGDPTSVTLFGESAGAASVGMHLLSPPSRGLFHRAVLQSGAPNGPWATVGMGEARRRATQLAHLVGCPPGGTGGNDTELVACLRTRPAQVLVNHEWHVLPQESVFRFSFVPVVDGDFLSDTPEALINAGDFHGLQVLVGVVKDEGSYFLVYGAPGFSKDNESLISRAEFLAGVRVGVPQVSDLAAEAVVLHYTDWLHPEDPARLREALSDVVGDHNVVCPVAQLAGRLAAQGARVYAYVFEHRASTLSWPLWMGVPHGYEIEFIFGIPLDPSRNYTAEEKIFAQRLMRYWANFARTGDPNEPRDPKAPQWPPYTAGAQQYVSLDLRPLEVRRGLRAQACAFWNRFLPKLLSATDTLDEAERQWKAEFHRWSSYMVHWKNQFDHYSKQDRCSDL
The target of test [14] is Voltage-gated inwardly rectifying potassium channel KCNH2 (Homo sapiens, UniProt Q12809). It is filed as functional.
Sequence of Voltage-gated inwardly rectifying potassium channel KCNH2 (Q12809 whole entry): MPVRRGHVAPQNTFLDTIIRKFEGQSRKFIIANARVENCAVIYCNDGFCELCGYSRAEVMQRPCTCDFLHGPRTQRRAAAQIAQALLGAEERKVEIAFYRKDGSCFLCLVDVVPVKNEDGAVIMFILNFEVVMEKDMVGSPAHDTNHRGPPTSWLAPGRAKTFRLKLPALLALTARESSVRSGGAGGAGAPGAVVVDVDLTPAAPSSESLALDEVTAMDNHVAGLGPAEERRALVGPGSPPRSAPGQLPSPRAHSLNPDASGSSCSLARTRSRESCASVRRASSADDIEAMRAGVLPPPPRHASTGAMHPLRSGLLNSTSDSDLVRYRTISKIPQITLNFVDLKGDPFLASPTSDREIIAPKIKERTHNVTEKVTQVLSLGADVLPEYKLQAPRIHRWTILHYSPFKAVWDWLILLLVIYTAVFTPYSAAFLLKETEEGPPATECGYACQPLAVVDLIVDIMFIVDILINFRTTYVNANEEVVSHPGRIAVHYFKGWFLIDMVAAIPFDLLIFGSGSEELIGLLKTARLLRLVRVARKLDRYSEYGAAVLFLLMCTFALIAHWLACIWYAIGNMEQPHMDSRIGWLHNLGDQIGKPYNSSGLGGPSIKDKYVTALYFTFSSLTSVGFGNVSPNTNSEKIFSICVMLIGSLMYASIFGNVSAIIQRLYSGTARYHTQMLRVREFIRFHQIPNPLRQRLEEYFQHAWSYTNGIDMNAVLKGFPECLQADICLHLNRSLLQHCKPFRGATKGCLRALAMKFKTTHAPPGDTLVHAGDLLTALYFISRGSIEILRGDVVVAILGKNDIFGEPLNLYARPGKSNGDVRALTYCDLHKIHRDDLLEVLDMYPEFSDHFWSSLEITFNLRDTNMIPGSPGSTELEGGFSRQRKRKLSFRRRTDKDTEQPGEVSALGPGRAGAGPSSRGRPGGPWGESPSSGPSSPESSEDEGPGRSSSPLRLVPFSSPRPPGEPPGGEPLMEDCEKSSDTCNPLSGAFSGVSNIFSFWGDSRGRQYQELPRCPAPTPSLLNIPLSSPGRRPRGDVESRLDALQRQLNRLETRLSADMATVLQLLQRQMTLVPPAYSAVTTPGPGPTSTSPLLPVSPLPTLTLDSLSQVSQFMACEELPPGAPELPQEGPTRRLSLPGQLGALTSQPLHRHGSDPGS

A value given as a limit tells only on which side of the number the result lay.
Note: assay procedure not described here.

Sequence of Histamine H2 receptor (P25021 whole entry): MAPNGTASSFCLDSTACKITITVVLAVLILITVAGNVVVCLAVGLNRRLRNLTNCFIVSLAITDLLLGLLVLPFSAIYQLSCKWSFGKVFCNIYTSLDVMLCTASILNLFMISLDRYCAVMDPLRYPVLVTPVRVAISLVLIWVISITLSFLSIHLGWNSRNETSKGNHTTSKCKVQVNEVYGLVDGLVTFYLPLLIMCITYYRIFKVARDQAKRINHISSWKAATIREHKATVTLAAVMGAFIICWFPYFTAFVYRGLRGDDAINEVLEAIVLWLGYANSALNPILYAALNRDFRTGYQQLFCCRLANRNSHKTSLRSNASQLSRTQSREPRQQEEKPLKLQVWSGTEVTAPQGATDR
Sequence of Melanocortin receptor 3 (P41968 whole entry): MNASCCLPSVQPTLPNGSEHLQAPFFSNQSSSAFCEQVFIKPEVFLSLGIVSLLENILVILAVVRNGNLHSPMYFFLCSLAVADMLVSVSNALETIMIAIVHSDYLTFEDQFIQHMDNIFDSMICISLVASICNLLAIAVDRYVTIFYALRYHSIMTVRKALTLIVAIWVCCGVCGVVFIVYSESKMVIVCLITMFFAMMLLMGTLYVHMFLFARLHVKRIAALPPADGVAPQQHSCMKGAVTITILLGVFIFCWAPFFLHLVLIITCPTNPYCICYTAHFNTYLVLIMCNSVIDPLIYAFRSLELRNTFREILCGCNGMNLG
Sequence of Motilin receptor (O43193 whole entry): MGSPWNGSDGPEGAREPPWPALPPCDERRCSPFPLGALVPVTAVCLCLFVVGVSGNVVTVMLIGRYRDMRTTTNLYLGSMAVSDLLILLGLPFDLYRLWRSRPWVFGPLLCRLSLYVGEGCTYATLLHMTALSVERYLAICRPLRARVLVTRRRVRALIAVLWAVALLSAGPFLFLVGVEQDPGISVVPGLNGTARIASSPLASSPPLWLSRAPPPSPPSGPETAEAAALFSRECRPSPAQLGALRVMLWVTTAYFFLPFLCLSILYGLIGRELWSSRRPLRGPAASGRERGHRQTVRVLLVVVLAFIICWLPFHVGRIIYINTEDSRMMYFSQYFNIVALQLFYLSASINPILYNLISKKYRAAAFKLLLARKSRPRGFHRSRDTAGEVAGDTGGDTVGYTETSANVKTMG

For `Clc1ccc(C(Cn2ccnc2)OCc2ccsc2Cl)c(Cl)c1` (configuration not stated) [TIOCONAZOLE], the AC50 in test [1] is above 30 µM; in test [2] it was above 30 µM; in [3], above 30 µM; in test [4], above 30 µM; in [5], above 30 µM; in test [6], 6.5 µM. Further, the AC50 in [7], in test [8], in [9], in test [10], in test [11] and in [12] was above 30 µM throughout.
Take `O=[N+]([O-])c1ccc(O)c2ncccc12` [NITROXOLINE]: the AC50 was above 30 µM in test [1]; above 30 µM in test [2]; above 10 µM in test [13]; above 30 µM in test [5]; 7.1 µM in [6]; 28 µM in test [14]. Moreover, the AC50 in test [9], in [10] and in test [12] was above 30 µM in each case.
For `C[C@H](Cc1ccc(O)c(O)c1)[C@@H](C)Cc1ccc(O)c(O)c1` [MASOPROCOL], the AC50 is above 10 µM in test [2]; above 30 µM in test [3]; 23.9 µM in test [4]; above 10 µM in test [5]; above 30 µM in test [6]; above 10 µM in test [7]. In addition, the AC50 in [8] was above 30 µM; in [14] it was above 30 µM; in [9], above 30 µM; in [10], above 10 µM; in test [11] it was above 30 µM; in [12], above 30 µM.
As to `CC(C)(C)C(=O)OCC(=O)[C@H]1CC[C@H]2[C@@H]3CCC4=CC(=O)CC[C@]4(C)[C@H]3CC[C@]12C` [DESOXYCORTICOSTERONE PIVALATE], the AC50 in test [2], in test [3], in test [4], in test [5], in test [6] and in [7] was above 10 µM throughout. In addition, the AC50 in test [8] was above 10 µM; in [14] it was above 30 µM; in test [9] it was above 10 µM; in test [10], above 10 µM; in test [11] it was above 10 µM; in test [12], above 10 µM.
On to `CCC(=O)O[C@H]1CC[C@H]2[C@@H]3CCC4=CC(=O)CC[C@]4(C)[C@H]3CC[C@]12C` [TESTOSTERONE PROPIONATE], for which the AC50 in test [1], in [2], in test [3], in [4], in [5] and in test [6] was above 10 µM throughout. Moreover, the half-maximal activity concentration (AC50) in test [7] is above 10 µM; in test [8], above 10 µM; in test [14], above 30 µM; in test [9], above 30 µM; in [10], above 10 µM; in test [11], above 10 µM. For the same compound, the AC50 in [12] was above 10 µM.
Regarding `C/N=C(\NC)NCc1ccccc1` [BETHANIDINE], the AC50 in [1], in test [2], in test [3], in test [5], in test [6] and in test [7] was above 30 µM each time. For the same compound, the AC50 in test [8], in test [14], in test [9], in test [10], in [11] and in test [12] was above 30 µM in each case.
As to `CC(C)COCC(CN(Cc1ccccc1)c1ccccc1)N1CCCC1` (configuration not stated) [BEPRIDIL], the AC50 in test [1] was above 10 µM; in test [2], above 30 µM; in test [3] it was 12.5 µM; in test [4], 10 µM; in [5], above 30 µM; in [6], 3.3 µM. The AC50 was 20.2 µM in [7]; above 30 µM in [8]; above 30 µM in test [9]; above 30 µM in [10]; above 30 µM in test [11]; above 30 µM in test [12].

The values above are taken from ChEMBL document CHEMBL5291721, “A preclinical secondary pharmacology resource illuminates target-adverse drug reaction associations of marketed drugs” (Nat Commun, 2023).
